Patent publication US7148029B2, “Immunoassay for neonicotinyl insecticides” (Syngenta Crop Protection, Inc., priority 1999, dated 2006)

Columns and labels:
[1] = tested on: polyclonal antibody of the thiamethoxam immunoassay; assay: Cross reactivity of the thiamethoxam immunoassay (competitive enzyme immunoassay in antibody-coated tubes); assay type: binding; set-up: key to Percent Reactivity Relative to Thiamethoxam: NR, non-reactive; conditions: for Percent Reactivity Relative to Thiamethoxam: test substances in 1% methanol/water, 1000 to 0.01 ng/ml
Experimental: The antibody-coated polystyrene culture tubes are labeled and placed in the tube rack such that the first and last tubes are standards and the remaining standards and samples are mixed. Sample and standard solutions (0.50-ml) are added to the corresponding tubes. A similar volume of enzyme conjugate solution is added. The rack is gently shaken to mix the solutions and set to incubate for 20 min at room temperature. The contents of all tubes are removed by inverting the rack over a stainless steel pan. Each tube is washed to overflowing with distilled water. The rack is inverted over the sink to dump the wash water. Washing is repeated four times. Then the rack is inverted and tapped gently on a paper towel to remove most of the remaining wash. […] The rack is gently shaken at 2.5 min intervals to ensure the enzyme maintains an ample supply of substrate. Generation of the blue colored signal is terminated by addition of acidic stop solution (0.50-ml). The absorbance of the solution in each tube is measured spectrophotometrically at 450 nm.
The concentration of analyte in the samples is determined from a regression function in the form of y=m ln(x)+b.
The cross reactivity, or specificity, of the immunoassay is evaluated to determine if other test substances found in seed coatings would interfere with measurement of thiamethoxam. Test substances are dissolved in 1% methanol/water to concentrations ranging from 1000 to 0.01 ng/ml. Aliquots of each concentration are analyzed as described above. The reactivity of each test substance over this range is determined as previously described in Brady, J. F; Turner, J.; Skinner, D. H. “Application of a triasulfuron enzyme immunoassay to the analysis of incurred residues in soil and water samples.” J. Agric. Food Chem. 1995, 43:2542–2547.

[2] = tested on: polyclonal antibody of the thiamethoxam immunoassay; assay: Typical standard curve for the thiamethoxam immunoassay; assay type: binding
Experimental: A portion of the seed extract is diluted into 1% MeOH/H2O until the expected concentration of thiamethoxam is brought within range of the calibration curve, 0.5 to 120 parts per billion. Antibody-coated tubes are labeled and placed in a tube rack such that the first and last tubes are standards and the remaining standards and samples are intermixed. The tube rack grips each tube such that the rack may be inverted without loss of the tubes. An aliquot of a standard or sample (0.5 mL) is added to all corresponding tubes. Enzyme conjugate solution (0.5 mL) is added to all tubes. The rack is shaken gently to mix the contents of all tubes. Tubes are incubated for 20 min at room temperature. The rack is inverted to decant the contents of all tubes. Distilled H2O is added to all tubes to overflowing using a flip-top wash bottle and the wash is decanted. Tubes are washed an additional three times. After the final wash, the rack is inverted and the tubes are gently tapped upon a clean paper towel to remove excess wash. Enzyme substrate (0.5 mL) is added to all tubes which are incubated for 10 min at room temperature. The rack is shaken gently every 2.5 min during this incubation. Acidic stop solution (1 M HCl, 0.5 mL) is added to all tubes to terminate signal generation. […] The absorbances of the standards are used to construct a calibration curve, a regression function in the form of […]. The absorbance of each sample is inserted into the function to determine the concentration of the neonicotinoid pesticide in the diluted sample. The resulting concentration is multiplied by the dilution factor to calculate the amount of neonicotinoid pesticide in the original sample. The function describing the response of the thiamethoxam standards is generated by regression analysis.

O=[N+]([O-])c1c(Cl)c(Cl)c(Cl)c(Cl)c1Cl [Pentachloronitrobenzene]
Percent Reactivity Relative to Thiamethoxam [1]: NR

CN1COCN(Cc2cnc(Cl)s2)/C1=N\[N+](=O)[O-] [Thiamethoxam]
reactivity with the immunoassay (in words) ([1]; among the test substances analyzed): significantly reactive
Percent Reactivity Relative to Thiamethoxam [1]: 100%
Absorbance at 450 nm (Analytical response) ([2]; Concentration of Thiamethoxam 0.5 Parts Per Billion): 1.3618
Absorbance at 450 nm (Analytical response) ([2]; Concentration of Thiamethoxam 3 Parts Per Billion): 1.0283
Absorbance at 450 nm (Analytical response) ([2]; Concentration of Thiamethoxam 20 Parts Per Billion): 0.6636
Absorbance at 450 nm (Analytical response) ([2]; Concentration of Thiamethoxam 120 Parts Per Billion): 0.3145

O=C1C2CC=CCC2C(=O)N1SC(Cl)(Cl)Cl (stereo not drawn) [Captan]
Percent Reactivity Relative to Thiamethoxam [1]: NR

COCC(=O)N(c1c(C)cccc1C)[C@H](C)C(=O)OC [Mefenoxam (R-Metalaxyl), Mefenoxam]
Percent Reactivity Relative to Thiamethoxam [1]: NR

N#CSCSc1nc2ccccc2s1 [TCMTB]
Percent Reactivity Relative to Thiamethoxam [1]: NR

CCOP(=S)(OCC)Oc1nc(Cl)c(Cl)cc1Cl [Chlorpyrifos]
Percent Reactivity Relative to Thiamethoxam [1]: NR

N#Cc1c[nH]cc1-c1cccc2c1OC(F)(F)O2 [Fludioxonil]
Percent Reactivity Relative to Thiamethoxam [1]: NR

CC1COC(Cn2cncn2)(c2ccc(Oc3ccc(Cl)cc3)cc2Cl)O1 (stereo not drawn) [Difenoconazole]
Percent Reactivity Relative to Thiamethoxam [1]: NR

CN/C(=N\[N+](=O)[O-])NCc1cnc(Cl)s1 [Clothiadin]
Percent Reactivity Relative to Thiamethoxam [1]: <1.0%

CCCCC(C#N)(Cn1cncn1)c1ccc(Cl)cc1 (stereo not drawn) [Systhane (Myclobutanil), Myclobutanil]
Percent Reactivity Relative to Thiamethoxam [1]: NR

CCN(CC)c1nc(C)cc(OP(=S)(OC)OC)n1 [Primifos-methyl]
Percent Reactivity Relative to Thiamethoxam [1]: NR

COCC(=O)N(c1c(C)cccc1C)C(C)C(=O)OC (stereo not drawn) [Metalaxyl]
Percent Reactivity Relative to Thiamethoxam [1]: NR

O=[N+]([O-])NC1=NCCN1Cc1ccc(Cl)nc1 [Imidacloprid]
Percent Reactivity Relative to Thiamethoxam [1]: ^2NR

CC1=C(C(=O)Nc2ccccc2)SCCO1 [Carboxin]
Percent Reactivity Relative to Thiamethoxam [1]: NR

FC(F)(F)C(=NOCC1OCCO1)c1ccc(Cl)cc1 [Fluxofenim]
Percent Reactivity Relative to Thiamethoxam [1]: NR

COC(=O)NC(=S)Nc1ccccc1NC(=S)NC(=O)OC [Thiophanate-methyl]
Percent Reactivity Relative to Thiamethoxam [1]: NR
